# According to patent US5322848A, “N-acyl-substituted azacyclic compounds, processes for their preparation, and their use as pharmaceuticals” (Dr. Lo Zembeletti S.p.A., priority 1989, dated 1994):
# Counter-ions that a name gives are not always drawn.
# Columns and labels:
# Type in all cases: in vivo, Male Charles River mice (Swiss Strain)
# mice (tail-flick) [1] = experiment: Duration of action, mouse tail-flick graded, % activity at MTFQ ED50; conditions: sc, data referred to the free base
# Description: (§1) B) Tail-flick test in mice
# (§2) The methodology employed is based on that described by D'Amour and Smith, J. Pharmacol. Exp. Ther. 72, 74/1941.
# (§3) Males Charles River mice (Swiss Strain), 22-34 g body weight were used. Animals were allowed food and water ad libitum and were randomized into groups of 10 prior to experimentation.
# Test compounds were dissolved in either distilled water or distilled water plug 0. 1M AMS and administered by the subcutaneous route in a final volume of 10 ml/Kg. Control animals received 10 ml/kg of the appropriate vehicle alone. […]
# (§4) Percentage quantal protection was determined as the number of mice in which the reaction time was doubled compared to pretreatment values, expressed as a percentage of the total number of mice in the group.
# [2] = tested on: mice (p-phenylquinone-induced abdominal writhing); experiment: P-phenylquinone-induced abdominal writhing test in mice; conditions: Mus musculus, sc, 20 min; subcutaneous; 20 min pretreatment; data referred to the free base; read-out: ANALGESIA MOUSE WRITHING ED50
# Description: A) P-phenylquinone-induced abdominal writhing rest in mice
# The methodology employed is based on that described by Sigmund et al, Proc. Soc. Exptl. Biol. 95, 729/1957, modified by Milne and Twomey, Agents and Actions, 10, 31/1980.
# Male Charles River mice (Swiss Strain), 25-36 g body weight, were used. Animals were allowed food and water ad libitum and were randomized into groups of 10 prior to experimentation. Test compounds were dissolved in either distilled water or distilled water plus 0.1 M AMS, and administered by the subcutaneous route in a final volume of 10 ml/Kg. Control animals received 10 ml/Kg of the appropriate vehicle alone. Following a pretreatment period of 20 min., mice were injected intraperitoneally with p-phenylquinone, 2 mg/Kg at 37° C. in a final volume of […]. […] During this period the number of abdominal writhing responses per animal were recorded where writhing consists of an intermittent contraction of the abdomen associated with hind leg extension.
# The degree of antinociceptive protection afforded by the test co mound was determined as the mean number of writhing responses observed in the treated group (T) expressed as a percentage of the mean number of writhing response in the control group (C) according to the following formula:
# [1-(T/C]×100%=% graded protection
# mice (tail-flick) [3] = experiment: Tail-flick test in mice; conditions: 30 min pretreatment, data referred to the free base; for ED50: Mus musculus, sc, 0.5 h, subcutaneous, read-out: ANALGESIA MOUSE TAIL-FLICK ED50; for ANALGESIA MOUSE TAIL-FLICK, % at 10 mg: 10 mg (mg/kg sc)
# Description: as §1, §2, §3
# Test compounds were dissolved in either distilled water or distilled water plug 0. 1M AMS and administered by the subcutaneous route in a final volume of 10 ml/Kg. Control animals received 10 ml/kg of the appropriate vehicle alone. Following a pretreatment period of 30 min., the mice were again placed under the heat source and the reaction tine re-determined.
# as §4
smiles,measurement,setting,value
"CC1(C)CCCN(C(=O)Cc2ccc(C(F)(F)F)cc2)C1CN1CCC(O)C1 (stereo not drawn) [Example 5, 1-(4-trifluoromethylphenyl)acetyl-2-(3-hydroxypyrrolidin-1-yl) methyl-3,3-dimethyl piperidine hydrochloride]","DURATION OF ACTION M. TAIL-FLICK GRADED % ACTIVITY AT MTFQ ED50, 30'",mice (tail-flick) [1],78%
same,"DURATION OF ACTION M. TAIL-FLICK GRADED % ACTIVITY AT MTFQ ED50, 90'",mice (tail-flick) [1],82%
same,ED50,[2],0.089 mg/kg
same,ED50,mice (tail-flick) [3],0.225 mg/kg
"CC1(C)CCCN(C(=O)Cc2ccc(Cl)c(Cl)c2)C1CN1CCC(O)C1 (stereo not drawn) [Example 6, 1-(3,4-dichlorophenyl)acetyl-2-(3-hydroxypyrrolidin-1-yl)methyl-3,3-dimethyl piperidine hydrochloride]","DURATION OF ACTION M. TAIL-FLICK GRADED % ACTIVITY AT MTFQ ED50, 30'",mice (tail-flick) [1],87%
same,"DURATION OF ACTION M. TAIL-FLICK GRADED % ACTIVITY AT MTFQ ED50, 90'",mice (tail-flick) [1],100%
same,ED50,[2],0.081 mg/kg
same,ED50,mice (tail-flick) [3],0.233 mg/kg
"CC1(C)CCN(C(=O)Cc2ccc(Cl)c(Cl)c2)C(CN2CCC(O)C2)C1 (stereo not drawn) [Example 7, 1-(3,4-dichlorophenyl)acetyl-2-(3-hydroxypyrrolidin-1-yl)methyl-4,4-dimethyl piperidine hydrochloride hemihydrate]","DURATION OF ACTION M. TAIL-FLICK GRADED % ACTIVITY AT MTFQ ED50, 30'",mice (tail-flick) [1],84%
same,"DURATION OF ACTION M. TAIL-FLICK GRADED % ACTIVITY AT MTFQ ED50, 90'",mice (tail-flick) [1],74%
same,ED50,[2],0.037 mg/kg
same,ED50,mice (tail-flick) [3],0.25 mg/kg
"C[C@]1(O)CCN(C[C@H]2CCCCN2C(=O)Cc2ccc(Cl)c(Cl)c2)C1.Cl [Example 9, (R,S)-1-(3,4-dichlorophenyl)acetyl-2-(3-hydroxy-3-methylpyrrolidin-1-yl) methyl piperidine hydrochloride]","ANALGESIA MOUSE TAIL-FLICK, % at 10 mg",mice (tail-flick) [3],40%
"CC1(C)CN(C(=O)Cc2ccc(Cl)c(Cl)c2)C(CN2CCC(O)C2)c2ccccc21 (stereo not drawn) [Example 14, 1-(3-hydroxypyrrolidin-1-yl)methyl-2-(3,4-dichlorophenyl)acetyl 4,4-dimethyl-1,2,3,4-tetrahydroisoquinoline hydrochloride]","DURATION OF ACTION M. TAIL-FLICK GRADED % ACTIVITY AT MTFQ ED50, 30'",mice (tail-flick) [1],93%
same,"DURATION OF ACTION M. TAIL-FLICK GRADED % ACTIVITY AT MTFQ ED50, 90'",mice (tail-flick) [1],85%
same,ED50,[2],0.087 mg/kg
same,ED50,mice (tail-flick) [3],0.898 mg/kg
"O=C1CCCc2cc(CC(=O)N3CCCCC3CN3CCC(O)C3)ccc21 (stereo not drawn) [Example 17, 1-[1-oxo-3,4-dihydro-(2H)-napht-6-yl]acetyl-2-(3-hydroxy-pyrrolidin-1-yl)methyl piperidine]","DURATION OF ACTION M. TAIL-FLICK GRADED % ACTIVITY AT MTFQ ED50, 30'",mice (tail-flick) [1],78%
same,"DURATION OF ACTION M. TAIL-FLICK GRADED % ACTIVITY AT MTFQ ED50, 90'",mice (tail-flick) [1],80%
same,ED50,[2],1.78 mg/kg
same,ED50,mice (tail-flick) [3],3.24 mg/kg
"O=C(Cc1ccc(Cl)c(Cl)c1)N1CCCCC1CN1CCC(F)C1 (stereo not drawn) [Example 18, 1-(3,4-dichlorophenyl)acetyl-2-(3-fluoropyrrolidin-1-yl)methyl piperidine hydrochloride]","DURATION OF ACTION M. TAIL-FLICK GRADED % ACTIVITY AT MTFQ ED50, 30'",mice (tail-flick) [1],80%
same,"DURATION OF ACTION M. TAIL-FLICK GRADED % ACTIVITY AT MTFQ ED50, 90'",mice (tail-flick) [1],34%
same,ED50,[2],0.002 mg/kg
same,ED50,mice (tail-flick) [3],0.021 mg/kg
"COC1CCN(CC2CCCCN2C(=O)Cc2ccc(Cl)c(Cl)c2)C1 (stereo not drawn) [Example 19, 1-(3,4-dichlorophenyl)acetyl-2-(3-methoxypyrrolidin-1-yl)methyl piperidine]","ANALGESIA MOUSE TAIL-FLICK, % at 10 mg",mice (tail-flick) [3],80%
"COC1CCN(CC2CCCCN2C(=O)Cc2ccc(C(F)(F)F)cc2)C1 (stereo not drawn) [Example 20, 1-(4-trifluoromethylphenyl)acetyl-2-(3-methoxypyrrolidin-1-yl) methyl piperidine]","ANALGESIA MOUSE TAIL-FLICK, % at 10 mg",mice (tail-flick) [3],80%
"O=C1CCCc2cc(CC(=O)N3CCCCC3CN3CCC(F)C3)ccc21 (stereo not drawn) [Example 22, 1-[1-oxo-3,4-dihydro-(2H)-napht-6-yl]acetyl-2-(3-fluoropyrrolidin-1-yl)methyl piperidine hydrochloride]","DURATION OF ACTION M. TAIL-FLICK GRADED % ACTIVITY AT MTFQ ED50, 30'",mice (tail-flick) [1],75%
same,"DURATION OF ACTION M. TAIL-FLICK GRADED % ACTIVITY AT MTFQ ED50, 90'",mice (tail-flick) [1],40%
same,ED50,[2],0.005 mg/kg
same,ED50,mice (tail-flick) [3],0.065 mg/kg
"CC1(C)CCCN(C(=O)Cc2ccc(C(F)(F)F)cc2)C1CN1CCC(F)C1 (stereo not drawn) [Example 23, 1-(4-trifluoromethylphenyl)acetyl-2-(3-fluoropyrrolidin-1-yl) methyl-3,3-dimethylpiperidine hydrochloride]","DURATION OF ACTION M. TAIL-FLICK GRADED % ACTIVITY AT MTFQ ED50, 30'",mice (tail-flick) [1],90%
same,"DURATION OF ACTION M. TAIL-FLICK GRADED % ACTIVITY AT MTFQ ED50, 90'",mice (tail-flick) [1],86%
same,ED50,[2],0.003 mg/kg
same,ED50,mice (tail-flick) [3],0.005 mg/kg
"CC1(C)CCN(C(=O)Cc2ccc3c(c2)CCCC3=O)C(CN2CCC(F)C2)C1 (stereo not drawn) [Example 25, 1-[1-oxo-3,4-dihydro-(2H)-napht-6-yl]acetyl-2-(3-fluoropyrrolidin-1-yl)methyl-4,4-dimethyl piperidine hydrochloride]","DURATION OF ACTION M. TAIL-FLICK GRADED % ACTIVITY AT MTFQ ED50, 30'",mice (tail-flick) [1],74%
same,"DURATION OF ACTION M. TAIL-FLICK GRADED % ACTIVITY AT MTFQ ED50, 90'",mice (tail-flick) [1],56%
same,ED50,[2],0.005 mg/kg
same,ED50,mice (tail-flick) [3],0.47 mg/kg
